Measured values: ChEMBL document CHEMBL6071160, “Identification of a novel 10-hydroxyevodiamine prodrug as a potent topoisomerase inhibitor with improved aqueous solubility for treatment of hepatocellular carcinoma” (Eur J Med Chem, 2024)
pIC50: −log10 of the molar value. Active and inactive are the calls of the source. No cut-off for these calls is given here.

How the values were obtained:
Huh-7 [1] = assay: In vivo antitumor activity against human Huh-7 cells subcutaneously injected into BALB/C nude mouse assessed as tumor growth inhibition at 40 mg/kg, ip administered once other day measured after 14 days; format: functional; conditions: Huh-7, 336 h, time 14 day, read-out: TGI
SK-HEP1 [2] = assay: Induction of apoptosis in human SK-HEP1 cells assessed as necrotic cells at 20 nM measured after 24 hrs by Annexin-V-FITC/PI analysis (reference value: 0.70%); format: functional
Huh-7 [3] = assay: Induction of apoptosis in human Huh-7 cells assessed as necrotic cells at 80 nM measured after 24 hrs by Annexin-V-FITC/PI analysis (reference value: 0.27%); format: functional
[4] = Chemical stability of compound at pH 5.5 assessed as residual rate measured after 2 days; format: physicochemical; conditions: buffer, time 2 day, read-out: Stability
[5] = Chemical stability of compound at pH 7.4 assessed as residual rate measured after 2 days; format: physicochemical; conditions: buffer, time 2 day, read-out: Stability
SK-HEP1 [6] = assay: Induction of cell cycle arrest in human SK-HEP1 cells assessed as accumulation of cells at S phase 80 nM measured after 24 hrs by flow cytometric assay (reference value: 30.04%); format: functional
[7] = target: T1, DNA topoisomerase 1 (Homo sapiens) (UniProt P11387); assay: Inhibition of DNA topoisomerase 1 (unknown origin) assessed as relaxation of supercoiled plasmid pBR322 DNA at 25 to 100 uM incubated for 15 mins measured after 30 mins addition of ethidium bromide by agarose gel electrophoresis; conditions: dose 25-100 µM, time 45.0 min
T1 sequence (whole entry): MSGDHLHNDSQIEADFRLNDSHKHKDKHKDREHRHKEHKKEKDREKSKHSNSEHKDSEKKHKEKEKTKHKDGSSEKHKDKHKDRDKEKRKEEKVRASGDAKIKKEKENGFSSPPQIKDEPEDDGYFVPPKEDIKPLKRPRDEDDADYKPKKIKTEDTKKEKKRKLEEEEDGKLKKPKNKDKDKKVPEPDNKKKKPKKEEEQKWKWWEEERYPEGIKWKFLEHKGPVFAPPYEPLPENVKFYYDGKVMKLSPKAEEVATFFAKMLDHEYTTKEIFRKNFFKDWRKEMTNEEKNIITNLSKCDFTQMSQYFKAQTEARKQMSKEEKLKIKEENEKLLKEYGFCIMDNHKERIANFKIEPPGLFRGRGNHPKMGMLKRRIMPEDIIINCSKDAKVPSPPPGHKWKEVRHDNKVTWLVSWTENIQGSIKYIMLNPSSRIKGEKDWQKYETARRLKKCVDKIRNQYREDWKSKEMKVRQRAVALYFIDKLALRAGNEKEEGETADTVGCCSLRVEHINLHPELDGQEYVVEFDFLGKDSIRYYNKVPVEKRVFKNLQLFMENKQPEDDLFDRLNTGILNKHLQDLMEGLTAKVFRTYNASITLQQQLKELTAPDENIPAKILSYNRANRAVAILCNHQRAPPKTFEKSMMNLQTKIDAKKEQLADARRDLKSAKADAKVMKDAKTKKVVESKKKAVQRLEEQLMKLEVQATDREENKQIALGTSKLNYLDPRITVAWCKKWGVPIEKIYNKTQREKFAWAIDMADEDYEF

Huh-7 [8] = assay: Induction of apoptosis in human Huh-7 cells assessed as late apoptotic cells at 40 nM measured after 24 hrs by Annexin-V-FITC/PI analysis (reference value: 1.23%); format: functional
[9] = Chemical stability of compound at pH 4.6 assessed as residual rate measured after 2 days; format: physicochemical; conditions: buffer, time 2 day, read-out: Stability
Huh-7 [10] = assay: Induction of apoptosis in human Huh-7 cells assessed as loss of mitochondrial membrane potential by measuring JC-1 stained cells at 40 nM measured after 24 hrs by JC-1 staining based flow cytometry (reference value: 2.27%); format: functional
Huh-7 [11] = assay: Induction of cell cycle arrest in human Huh-7 cells assessed as accumulation of cells at G1 phase 20 nM measured after 24 hrs by flow cytometric assay (reference value: 63.01%); format: functional
[12] = Toxicity in BALB/c nude mouse subcutaneously injected with human Huh-7 cells assessed as change in red blood cells at 10 mg/kg, ip administered once daily measured after 14 days; format: organism-based; conditions: in vivo, 336 h, time 14 day
SK-HEP1 [13] = assay: Induction of apoptosis in human SK-HEP1 cells assessed as viable cells at 40 nM measured after 24 hrs by Annexin-V-FITC/PI analysis (reference value: 97.20%); format: functional; conditions: read-out: Activity
Huh-7 [14] = assay: Induction of cell cycle arrest in human Huh-7 cells assessed as accumulation of cells at G1 phase 40 nM measured after 24 hrs by flow cytometric assay (reference value: 63.01%); format: functional
SK-HEP1 [15] = assay: Induction of cell cycle arrest in human SK-HEP1 cells assessed as accumulation of cells at S phase 40 nM measured after 24 hrs by flow cytometric assay (reference value: 30.04%); format: functional
SK-HEP1 [16] = assay: Antiproliferative activity against human SK-HEP1 cells assessed as inhibition of cell proliferation incubated for 72 hrs by MTT assay; format: functional, cell-based; conditions: SK-HEP1, 72 h
SK-HEP1 [17] = assay: Induction of cell cycle arrest in human SK-HEP1 cells assessed as accumulation of cells at G1 phase 80 nM measured after 24 hrs by flow cytometric assay (reference value: 47.55%); format: functional
SK-HEP1 [18] = assay: Induction of apoptosis in human SK-HEP1 cells assessed as early apoptotic cells at 20 nM measured after 24 hrs by Annexin-V-FITC/PI analysis (reference value: 1.45%); format: functional
[19] = Prodrug conversion in rat plasma assessed as half life by measuring parent 10-hydroxyevodiamine derivative release by HPLC analysis; format: ADME, cell-free
Huh-7 [20] = assay: Induction of apoptosis in human Huh-7 cells assessed as late apoptotic cells at 80 nM measured after 24 hrs by Annexin-V-FITC/PI analysis (reference value: 1.23%); format: functional
SK-HEP1 [21] = assay: Inhibition of cell invasion in human SK-HEP1 cells assessed as decrease in number of cells migration into lower compartment at 10 nM measured after 24 hrs by transwell assay; format: functional, cell-based
Huh-7 [22] = assay: Induction of apoptosis in human Huh-7 cells assessed as late apoptotic cells at 20 nM measured after 24 hrs by Annexin-V-FITC/PI analysis (reference value: 1.23%); format: functional
SK-HEP1 [23] = assay: Inhibition of cell invasion in human SK-HEP1 cells assessed as decrease in number of cells migration into lower compartment at 20 nM measured after 24 hrs by transwell assay; format: functional, cell-based
SK-HEP1 [24] = assay: Induction of apoptosis in human SK-HEP1 cells assessed as viable cells at 80 nM measured after 24 hrs by Annexin-V-FITC/PI analysis (reference value: 97.20%); format: functional; conditions: read-out: Activity
[25] = Toxicity in BALB/c nude mouse subcutaneously injected with human Huh-7 cells assessed as animal death at 40 mg/kg, ip administered once daily measured after 14 days; format: organism-based; conditions: in vivo, 336 h, time 14 day
[26] = Toxicity in BALB/c nude mouse subcutaneously injected with human Huh-7 cells assessed as animal death at 10 to 20 mg/kg, ip administered once daily measured after 14 days; format: organism-based; conditions: in vivo, 336 h, dose 10-20 mg/kg, time 14 day
Huh-7 [27] = assay: Induction of apoptosis in human Huh-7 cells assessed as viable cells at 80 nM measured after 24 hrs by Annexin-V-FITC/PI analysis (reference value: 97.46%); format: functional; conditions: read-out: Activity

For `C[N+](C)(C)CCC(=O)Oc1ccc2[nH]c3c(c2c1)CCN1C(=O)c2cc(F)cc(F)c2N(c2cccc(F)c2)C31.[I-]` (configuration not stated), the inhibition in vivo at 40 mg/kg (Huh-7 [1]) was 51.1%, the Activity (SK-HEP1 [2]) was 0.47% and the Activity (Huh-7 [3]) was 0.83%. For the same compound, the remaining at 48 h [4] was 55.8%, the remaining at 48 h [5] was 43.9% and the Activity (SK-HEP1 [6]) was 18.41%. The inhibition [7] was “Active”, the Activity (Huh-7 [8]) was 2.89% and the remaining at 48 h [9] was 63.1%. The Activity (Huh-7 [10]) was 3.05%, the Activity (Huh-7 [11]) was 66.72% and the Activity [12] was “Non-Toxic”. For the same compound, the viability at 0.04 µM (SK-HEP1 [13]) was 93.1%, the Activity (Huh-7 [14]) was 66.98% and the Activity (SK-HEP1 [15]) was 31.15%. It also gave a pIC50 (SK-HEP1 [16]) of 7.52, an Activity (SK-HEP1 [17]) of 13.31% and an Activity (SK-HEP1 [18]) of 1.59%. The t1/2 [19] was 30 min, the Activity (Huh-7 [20]) was 11.64% and the inhibition (SK-HEP1 [21]) was “Active”. The Activity (Huh-7 [22]) was 2.03%, the inhibition (SK-HEP1 [23]) was “Active” and the viability at 0.08 µM (SK-HEP1 [24]) was 64.7%. The Activity [25] was “Toxic”, the Activity [26] was “Non-Toxic” and the viability at 0.08 µM (Huh-7 [27]) was 79.7%.
